Tested on: Ehrlich's ascites carcinoma cell
Experiment: Cell-killing effect upon Ehrlich's ascites carcinoma cell using WST
Assay type: cell-based
Conditions: 1×10^6 cells, read-out: IC50 (doxorubicin concentration by which 50% of cell-killing effect is obtained)
Experimental: The preparations prepared in Examples 1 and 2 and Comparative Examples 1, 2 and 3 were adjusted to various concentrations, and the resulting liquids were added to Ehrlich's ascites carcinoma cell (1×10^6 cells) to examine their cell-killing effects using WST.
Based on the results of plotting a relationship between the doxorubicin concentration in each preparation and its cell-killing effect, the doxorubicin concentration by which 50% of cell-killing effect is obtained was calculated (Table 1). By this, it was shown that the liposome preparations of the present invention show significant pharmacological effect in comparison with Comparative Examples.

COc1cccc2c1C(=O)c1c(O)c3c(c(O)c1C2=O)C[C@@](O)(C(=O)CO)C[C@@H]3O[C@H]1C[C@H](N)[C@H](O)[C@H](C)O1 [Comparative Example 3, doxorubicin]
IC50: 3.45 µM

Source: patent US20070286898A1, “Intracellular Drug Delivery Improving Liposome” (ASTELLAS PHARMA INC., priority 2004, published 2007)
